pKd: −log10 of the molar value.
Biological target: T1, Cdk2(2-298) (Homo sapiens, UniProt P24941)
T1 construct: Biotinylated N-terminal avi-tagged Cdk2(2-298) or Cdk1(1-297) was immobilized
Assay: Surface Plasmon Resonance (SPR) compound interaction, Biacore 8K
Type: binding
Settings: single-cycle kinetics (SCK, "S"), dissociation 1800 sec, read-out: Activity rating (KD)
Procedure: Compound interaction was profiled using a Biacore 8K instrument (Cytiva). Biotinylated N-terminal avi-tagged Cdk2(2-298) or Cdk1(1-297) was immobilized on a series S sensor Chip SA at a capture level between 2500 RU and 3000 RU (Cdk2) or 7000 RU (Cdk1) in buffer (25 mM HEPES, 150 mM NaCl, 0.05% Tween20, pH 7.5). A compound dilution plate (8 concentrations, 3-fold dilution) in DMSO was prepared (100× assay concentration). From this plate, compound DMSO stock solution was transferred into buffer, yielding a final DMSO concentration of 1% in assay. The remaining buffer was supplemented with 1% DMSO. Compounds were injected in a series of increasing concentrations in multi-cycle kinetics (MCK, “M”) or single-cycle kinetics (SCK, “S”) mode at a flow rate of 30 μl/min for 120 sec and dissociation was profiled for 180 sec (MCK) or 1800 sec (SCK). Data were analysed using Biacore Insight Evaluation Software (Cytiva).

C=Cc1ccccc1S(=O)(=O)Nc1ccc(Oc2ccncc2-c2ccnc(N[C@H]3CC[C@H](N)CC3)n2)c(F)c1 [Compound 33, N-[4-[[3-[2-(1r,4r)[(4-Aminocyclohexyl)amino]pyrimidin-4-yl]-4-pyridyl]oxy]-3-fluoro-phenyl]-2-ethenylbenzenesulfonamide]
pKd: ≥ 8.00

O=S(=O)(Nc1ccc(Oc2ccncc2-c2ccnc(N[C@H]3CCCNC3)n2)c(F)c1)c1ccccc1Cl [Compound 34, N-[3-Fluoro-4-[[3-[2-[[(3S)-3-piperidyl]amino]pyrimidin-4-yl]-4-pyridyl]oxy]phenyl] 2-chlorobenzenesulfonamide]
pKd: ≥ 8.00

Cc1ccc(C#N)cc1S(=O)(=O)Nc1ccc(Oc2ccncc2-c2ccnc(N[C@H]3CC[C@H](N)CC3)n2)c(F)c1 [Compound 35, N-(4-((3-(2-(((1r,4r)-4-aminocyclohexyl)amino)pyrimidin-4-yl)pyridin-4-yl)oxy)-3-fluorophenyl) 5-cyano-2-methylbenzenesulfonamide]
pKd: 7.00 to 7.96

N[C@H]1CC[C@H](Nc2nccc(-c3cnccc3Oc3ccc(NS(=O)(=O)C4CC4)cc3F)n2)CC1 [Compound 36, N-[4-[[3-[2-[(1r,4r)(4-Aminocyclohexyl)amino]pyrimidin-4-yl]-4-pyridyl]oxy]-3-fluorophenyl] cyclopropanesulfonamide]
pKd: < 5.30

N[C@H]1CC[C@H](Nc2nccc(-c3cnccc3Oc3ccc(NS(=O)(=O)c4ccccc4)cc3F)n2)CC1 [Compound 37, N-[4-[[3-[2-[(1r,4r)(4-Aminocyclohexyl)amino]pyrimidin-4-yl]-4-pyridyl]oxy]-3-fluorophenyl] benzenesulfonamide]
pKd: 7.00 to 7.96

NC(=O)c1ccc(S(=O)(=O)Nc2ccc(Oc3ccncc3-c3ccnc(N[C@H]4CC[C@H](N)CC4)n3)c(F)c2)cc1 [Compound 38, 4-(N-(4-((3-(2-(((1r,4r)-4-aminocyclohexyl)amino)pyrimidin-4-yl)pyridin-4-yl)oxy)-3-fluorophenyl)sulfamoyl) benzamide]
pKd: 6.00 to 7.00

N[C@H]1CC[C@H](Nc2nccc(-c3cnccc3Oc3ccc(NS(=O)(=O)C4CCC4)cc3F)n2)CC1 [Compound 39, N-[4-[[3-[2-[(1r,4r)(4-Aminocyclohexyl)amino]pyrimidin-4-yl]-4-pyridyl]oxy]-3-fluorophenyl]cyclobutanesulfonamide]
pKd: 5.30 to 6.00

CS(=O)(=O)Nc1ccc(Oc2ccncc2-c2ccnc(N[C@H]3CC[C@H](N)CC3)n2)c(F)c1 [Compound 40, N-(4-((3-(2-(((1r,4r)-4-aminocyclohexyl)amino)pyrimidin-4-yl)pyridin-4-yl)oxy)-3-fluorophenyl) methanesulfonamide]
pKd: 5.30 to 6.00

N[C@H]1CC[C@H](Nc2nccc(-c3cnccc3Oc3ccc(NS(=O)(=O)c4ccc5c(c4)OCO5)cc3F)n2)CC1 [Compound 41, N-[4-[[3-[2-[(1r,4r)(4-aminocyclohexyl)amino]pyrimidin-4-yl]-4-pyridyl]oxy]-3-fluorophenyl]1,3-benzodioxol-5-ylsulfonamide]
pKd: 6.00 to 7.00

N[C@H]1CC[C@H](Nc2nccc(-c3cnccc3Oc3ccc(NS(=O)(=O)c4cccc5cccnc45)cc3F)n2)CC1 [Compound 42, N-[4-[[3-[2-[(1r,4r)(4-aminocyclohexyl)amino]pyrimidin-4-yl]-4-pyridyl]oxy]-3-fluorophenyl]quinoline-8-sulfonamide]
pKd: 6.00 to 7.00

COc1ccc(S(=O)(=O)Nc2ccc(Oc3ccncc3-c3ccnc(N[C@H]4CC[C@H](N)CC4)n3)c(F)c2)c(C)c1C [Compound 43, N-[4-[[3-[2-[(1r,4r)(4-aminocyclohexyl)amino]pyrimidin-4-yl]-4-pyridyl]oxy]-3-fluorophenyl] 4-methoxy-2,3-dimethyl-benzenesulfonamide]
pKd: 7.00 to 7.96

N[C@H]1CC[C@H](Nc2nccc(-c3cnccc3Oc3ccc(NS(=O)(=O)Cc4ccccc4)cc3F)n2)CC1 [Compound 44, N-[4-[[3-[2-[(1r,4r)(4-Aminocyclohexyl)amino]pyrimidin-4-yl]-4-pyridyl]oxy]-3-fluorophenyl] phenylmethanesulfonamide]
pKd: 5.30 to 6.00

Cc1cc2cc(S(=O)(=O)Nc3ccc(Oc4ccncc4-c4ccnc(N[C@H]5CC[C@H](N)CC5)n4)c(F)c3)ccc2[nH]1 [Compound 45, N-[4-[[3-[2-[(1r,4r)(4-aminocyclohexyl)amino]pyrimidin-4-yl]-4-pyridyl]oxy]-3-fluorophenyl] 2-methyl-1H-indole-5-sulfonamide]
pKd: < 5.30

N[C@H]1CC[C@H](Nc2nccc(-c3cnccc3Oc3ccc(NS(=O)(=O)c4ccccc4)c(F)c3)n2)CC1 [Compound 46, N-[4-[[3-[2-[(1r,4r)(4-Aminocyclohexyl)amino]pyrimidin-4-yl]-4-pyridyl]oxy]-2-fluorophenyl] benzenesulfonamide]
pKd: 6.00 to 7.00

N[C@H]1CC[C@H](Nc2nccc(-c3cnccc3Oc3cc(Cl)c(NS(=O)(=O)c4ccccc4Cl)cc3F)n2)CC1 [Compound 47, N-[4-[[3-[2-[(1r,4r)(4-Aminocyclohexyl)amino]pyrimidin-4-yl]-4-pyridyl]oxy]-2-chloro-5-fluorophenyl] 2-chlorobenzenesulfonamide]
pKd: ≥ 8.00

N[C@H]1CC[C@H](Nc2nccc(-c3cnccc3Oc3cc(Cl)c(NS(=O)(=O)c4ccccc4)cc3F)n2)CC1 [Compound 48, N-[4-[[3-[2-[(1r,4r)(4-Aminocyclohexyl)amino]pyrimidin-4-yl]-4-pyridyl]oxy]-2-chloro-5-fluorophenyl] benzenesulfonamide]
pKd: 7.00 to 7.96

N[C@H]1CC[C@H](Nc2nccc(-c3cnccc3Oc3cc(Cl)c(NS(=O)(=O)Cc4ccccc4)cc3F)n2)CC1 [Compound 49, N-[4-[[3-[2-[(1r,4r)(4-Aminocyclohexyl)amino]pyrimidin-4-yl]-4-pyridyl]oxy]-2-chloro-5-fluorophenyl] phenylmethanesulfonamide]
pKd: 6.00 to 7.00

N[C@H]1CC[C@H](Nc2nccc(-c3cnccc3Oc3ccc(NS(=O)(=O)C4CC4)c(Cl)c3)n2)CC1 [Compound 50, N-[4-[[3-[2-[(1r,4r)(4-Aminocyclohexyl)amino]pyrimidin-4-yl]-4-pyridyl]oxy]-2-chlorophenyl] cyclopropanesulfonamide]
pKd: < 5.30

N[C@H]1CC[C@H](Nc2nccc(-c3cnccc3Oc3ccc(NS(=O)(=O)Cc4ccccc4)c(Cl)c3)n2)CC1 [Compound 51, N-[4-[[3-[2-[(1r,4r)(4-Aminocyclohexyl)amino]pyrimidin-4-yl]-4-pyridyl]oxy]-2-chlorophenyl] phenylmethanesulfonamide]
pKd: 5.30 to 6.00

N[C@H]1CC[C@H](Nc2nccc(-c3cnccc3Oc3ccc(NS(=O)(=O)c4ccccc4)c(Cl)c3F)n2)CC1 [Compound 52, N-[4-[[3-[2-[(1r,4r)(4-Aminocyclohexyl)amino]pyrimidin-4-yl]-4-pyridyl]oxy]-2-chloro-3-fluorophenyl] benzenesulfonamide]
pKd: 7.00 to 7.96

N[C@H]1CC[C@H](Nc2nccc(-c3cnccc3Oc3ccc(NS(=O)(=O)c4ccccc4Br)cc3F)n2)CC1 [Compound 53, N-[4-[[3-[2-[(1r,4r)(4-Aminocyclohexyl)amino]pyrimidin-4-yl]-4-pyridyl]oxy]-3-fluorophenyl] 2-bromobenzenesulfonamide]
pKd: ≥ 8.00

Cc1ccccc1S(=O)(=O)Nc1ccc(Oc2ccncc2-c2ccnc(N[C@H]3CC[C@H](N)CC3)n2)c(F)c1 [Compound 54, N-[4-[[3-[2-[(1r,4r)(4-Aminocyclohexyl)amino]pyrimidin-4-yl]-4-pyridyl]oxy]-3-fluorophenyl] 2-methylbenzenesulfonamide]
pKd: 7.00 to 7.96

Cc1cc(C)c(S(=O)(=O)Nc2ccc(Oc3ccncc3-c3ccnc(N[C@H]4CC[C@H](N)CC4)n3)c(F)c2)c(C)c1 [Compound 55, N-[4-[[3-[2-[(1r,4r)(4-Aminocyclohexyl)amino]pyrimidin-4-yl]-4-pyridyl]oxy]-3-fluorophenyl] 2,4,6-trimethylbenzenesulfonamide]
pKd: 6.00 to 7.00

N[C@H]1CC[C@H](Nc2nccc(-c3cnccc3Oc3ccc(NS(=O)(=O)c4cccc5nccnc45)cc3F)n2)CC1 [Compound 56, N-[4-[[3-[2-[(1r,4r)(4-Aminocyclohexyl)amino]pyrimidin-4-yl]-4-pyridyl]oxy]-3-fluorophenyl] quinoxalin-5-ylsulfonamide]
pKd: 6.00 to 7.00

N[C@H]1CC[C@H](Nc2nccc(-c3cnccc3Oc3ccc(NS(=O)(=O)c4cccc5c4CCCC5)cc3F)n2)CC1 [Compound 57]
pKd: 6.00 to 7.00

N[C@H]1CC[C@H](Nc2nccc(-c3cnccc3Oc3ccc(NS(=O)(=O)c4cc(Cl)c(Br)cc4F)cc3F)n2)CC1 [Compound 58, N-[4-[[3-[2-[(1r,4r)(4-Aminocyclohexyl)amino]pyrimidin-4-yl]-4-pyridyl]oxy]-3-fluorophenyl] 4-bromo-5-chloro-2-fluorobenzenesulfonamide]
pKd: 7.00 to 7.96

O=S(=O)(Nc1ccc(Oc2ccncc2-c2ccnc(N[C@H]3CCCNC3)n2)c(F)c1)c1ccccc1 [Compound 59, N-[3-Fluoro-4-[[3-[2-[[(3S)-3-piperidyl]amino]pyrimidin-4-yl]-4-pyridyl]oxy]phenyl] benzenesulfonamide]
pKd: 7.00 to 7.96

N[C@H]1CC[C@H](Nc2nccc(-c3cnccc3Oc3cc(Cl)c(NS(=O)(=O)C4CC4)cc3F)n2)CC1 [Compound 60, N-[4-[[3-[2-[(1r,4r)(4-Aminocyclohexyl)amino]pyrimidin-4-yl]-4-pyridyl]oxy]-2-chloro-5-fluorophenyl] cyclopropylsulfonamide]
pKd: 5.30 to 6.00

From patent US20260234112A1, “COMPOUNDS, COMPOSITIONS, AND METHODS OF USE THEREOF” (Type6 Therapeutics, Inc., priority 2023, published 2026)
